Data taken from ChEMBL document CHEMBL4043199, “Synthesis and optimization of 4,5,6,7-tetrahydrooxazolo[4,5-c]pyridines as potent and orally-active metabotropic glutamate receptor 5 negative allosteric modulators” (Bioorg Med Chem Lett, 2017).
≈ marks a conversion by molar mass, not a printed value. Calls of active or inactive are those of the source. The calls are words filed in the database; no cut-off is given here.

Assays:
[1] = system: Rattus norvegicus; assay: Toxicity in rat at 100 mg/kg, po qd administered via gavage for 14 days; type: organism-based; settings: in vivo, 336 h
[2] = target: Cytochrome P450 2C9 (Homo sapiens, UniProt P11712); assay: Inhibition of CYP2C9 in human liver microsomes using diclofenac as substrate after 10 mins by LC-MS/MS analysis; type: ADME
Cytochrome P450 2C9, sequence (P11712 whole entry): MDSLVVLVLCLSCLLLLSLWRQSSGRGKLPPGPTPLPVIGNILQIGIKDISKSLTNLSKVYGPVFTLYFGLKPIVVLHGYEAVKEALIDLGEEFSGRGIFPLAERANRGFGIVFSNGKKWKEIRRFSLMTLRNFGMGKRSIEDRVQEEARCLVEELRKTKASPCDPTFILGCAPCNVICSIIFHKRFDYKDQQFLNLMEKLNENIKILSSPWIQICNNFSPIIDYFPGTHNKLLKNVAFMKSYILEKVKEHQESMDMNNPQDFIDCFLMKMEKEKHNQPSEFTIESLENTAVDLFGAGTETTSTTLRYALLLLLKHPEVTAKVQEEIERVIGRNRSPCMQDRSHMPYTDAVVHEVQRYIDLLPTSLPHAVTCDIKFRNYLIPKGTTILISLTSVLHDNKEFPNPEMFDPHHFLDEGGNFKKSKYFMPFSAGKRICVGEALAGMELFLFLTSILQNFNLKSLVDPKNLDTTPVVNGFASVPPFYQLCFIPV

[3] = Oral bioavailability in monkey at 10 mg/kg; type: ADME, organism-based, Macaca mulatta; settings: rhesus monkey, in vivo
[4] = Volume of distribution at steady state in rat at 0.35 mg/kg, iv after 24 hrs; type: ADME, organism-based; settings: in vivo, read-out: Vdss
[5] = Metabolic stability in rat hepatic microsomes assessed as parent compound remaining at 1 uM after 30 mins in presence of NADPH by LC-MS/MS analysis relative to control; type: ADME, Microsome; settings: liver microsomes, read-out: Stability
[6] = Aqueous solubility of compound at pH 7.4; type: physicochemical; settings: aqueous medium
[7] = Cmax in monkey at 10 mg/kg, po; type: ADME, organism-based, Macaca mulatta; design: dose 10 mg/kg, route oral; settings: rhesus monkey, in vivo
[8] = Clearance in rat at 0.35 mg/kg, iv after 24 hrs; type: ADME, organism-based; settings: in vivo
[9] = Permeability of the compound at pH 7.4 by PAMPA; type: physicochemical; settings: read-out: permeability
[10] = target: Metabotropic glutamate receptor 5 (Homo sapiens, UniProt P41594); assay: Negative allosteric modulation of human recombinant mGluR5 expressed in HEK293 cells assessed as inhibition of glutamate-induced calcium mobilization preincubated for 2 mins followed glutamate addition measured by fluorescence assay; type: functional, cell-based
Metabotropic glutamate receptor 5, sequence (P41594 whole entry): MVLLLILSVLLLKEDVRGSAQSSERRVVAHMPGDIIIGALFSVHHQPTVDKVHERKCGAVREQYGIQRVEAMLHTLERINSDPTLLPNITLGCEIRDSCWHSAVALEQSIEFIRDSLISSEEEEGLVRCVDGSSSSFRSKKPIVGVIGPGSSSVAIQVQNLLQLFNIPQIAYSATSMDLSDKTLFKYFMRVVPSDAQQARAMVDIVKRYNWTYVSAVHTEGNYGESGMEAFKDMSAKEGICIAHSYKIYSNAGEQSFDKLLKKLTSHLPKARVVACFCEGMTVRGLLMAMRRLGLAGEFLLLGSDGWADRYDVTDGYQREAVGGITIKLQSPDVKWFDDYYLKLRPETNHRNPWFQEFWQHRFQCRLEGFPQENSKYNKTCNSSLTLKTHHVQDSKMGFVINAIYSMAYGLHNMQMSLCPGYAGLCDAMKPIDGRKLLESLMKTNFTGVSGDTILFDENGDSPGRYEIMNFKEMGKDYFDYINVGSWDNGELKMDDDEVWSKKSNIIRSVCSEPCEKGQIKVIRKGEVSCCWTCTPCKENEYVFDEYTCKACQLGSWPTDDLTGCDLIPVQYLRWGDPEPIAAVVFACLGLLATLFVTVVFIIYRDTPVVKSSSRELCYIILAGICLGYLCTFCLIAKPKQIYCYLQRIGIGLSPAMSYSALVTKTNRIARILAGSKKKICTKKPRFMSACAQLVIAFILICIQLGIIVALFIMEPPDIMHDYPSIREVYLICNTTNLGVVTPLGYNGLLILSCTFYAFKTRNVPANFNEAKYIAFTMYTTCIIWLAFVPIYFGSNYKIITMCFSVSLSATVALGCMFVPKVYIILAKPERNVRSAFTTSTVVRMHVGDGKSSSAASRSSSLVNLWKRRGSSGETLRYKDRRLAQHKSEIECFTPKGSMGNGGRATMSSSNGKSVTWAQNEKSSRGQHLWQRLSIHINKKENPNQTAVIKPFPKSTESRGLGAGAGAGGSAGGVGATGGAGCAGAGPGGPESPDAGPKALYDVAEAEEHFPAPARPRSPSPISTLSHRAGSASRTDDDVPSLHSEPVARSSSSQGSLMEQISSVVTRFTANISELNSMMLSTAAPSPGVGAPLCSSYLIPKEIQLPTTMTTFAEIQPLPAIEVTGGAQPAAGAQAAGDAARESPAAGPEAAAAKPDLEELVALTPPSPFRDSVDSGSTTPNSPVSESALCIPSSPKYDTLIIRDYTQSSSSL

[11] = target: T1, Cytochrome P450 1A2 (Homo sapiens, UniProt P05177); assay: Inhibition of CYP1A2 in human liver microsomes using phenacetin as substrate after 10 mins by LC-MS/MS analysis; type: ADME
T1 sequence (P05177 whole entry): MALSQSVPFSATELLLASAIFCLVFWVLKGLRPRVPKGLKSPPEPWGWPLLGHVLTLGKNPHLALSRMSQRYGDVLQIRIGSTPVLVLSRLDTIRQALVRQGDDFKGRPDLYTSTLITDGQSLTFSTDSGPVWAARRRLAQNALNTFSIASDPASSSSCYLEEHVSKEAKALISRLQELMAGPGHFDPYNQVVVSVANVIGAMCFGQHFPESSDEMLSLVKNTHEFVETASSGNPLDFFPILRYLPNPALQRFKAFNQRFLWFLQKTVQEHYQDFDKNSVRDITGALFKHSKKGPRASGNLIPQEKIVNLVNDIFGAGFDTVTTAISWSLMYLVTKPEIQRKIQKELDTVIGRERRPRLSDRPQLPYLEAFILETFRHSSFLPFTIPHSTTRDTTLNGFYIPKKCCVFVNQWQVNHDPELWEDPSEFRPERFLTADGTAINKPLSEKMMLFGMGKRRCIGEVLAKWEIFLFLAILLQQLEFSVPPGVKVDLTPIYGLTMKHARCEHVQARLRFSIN

[12] = target: Voltage-gated inwardly rectifying potassium channel KCNH2 (Homo sapiens, UniProt Q12809); assay: Inhibition of human ERG
Voltage-gated inwardly rectifying potassium channel KCNH2, sequence (Q12809 whole entry): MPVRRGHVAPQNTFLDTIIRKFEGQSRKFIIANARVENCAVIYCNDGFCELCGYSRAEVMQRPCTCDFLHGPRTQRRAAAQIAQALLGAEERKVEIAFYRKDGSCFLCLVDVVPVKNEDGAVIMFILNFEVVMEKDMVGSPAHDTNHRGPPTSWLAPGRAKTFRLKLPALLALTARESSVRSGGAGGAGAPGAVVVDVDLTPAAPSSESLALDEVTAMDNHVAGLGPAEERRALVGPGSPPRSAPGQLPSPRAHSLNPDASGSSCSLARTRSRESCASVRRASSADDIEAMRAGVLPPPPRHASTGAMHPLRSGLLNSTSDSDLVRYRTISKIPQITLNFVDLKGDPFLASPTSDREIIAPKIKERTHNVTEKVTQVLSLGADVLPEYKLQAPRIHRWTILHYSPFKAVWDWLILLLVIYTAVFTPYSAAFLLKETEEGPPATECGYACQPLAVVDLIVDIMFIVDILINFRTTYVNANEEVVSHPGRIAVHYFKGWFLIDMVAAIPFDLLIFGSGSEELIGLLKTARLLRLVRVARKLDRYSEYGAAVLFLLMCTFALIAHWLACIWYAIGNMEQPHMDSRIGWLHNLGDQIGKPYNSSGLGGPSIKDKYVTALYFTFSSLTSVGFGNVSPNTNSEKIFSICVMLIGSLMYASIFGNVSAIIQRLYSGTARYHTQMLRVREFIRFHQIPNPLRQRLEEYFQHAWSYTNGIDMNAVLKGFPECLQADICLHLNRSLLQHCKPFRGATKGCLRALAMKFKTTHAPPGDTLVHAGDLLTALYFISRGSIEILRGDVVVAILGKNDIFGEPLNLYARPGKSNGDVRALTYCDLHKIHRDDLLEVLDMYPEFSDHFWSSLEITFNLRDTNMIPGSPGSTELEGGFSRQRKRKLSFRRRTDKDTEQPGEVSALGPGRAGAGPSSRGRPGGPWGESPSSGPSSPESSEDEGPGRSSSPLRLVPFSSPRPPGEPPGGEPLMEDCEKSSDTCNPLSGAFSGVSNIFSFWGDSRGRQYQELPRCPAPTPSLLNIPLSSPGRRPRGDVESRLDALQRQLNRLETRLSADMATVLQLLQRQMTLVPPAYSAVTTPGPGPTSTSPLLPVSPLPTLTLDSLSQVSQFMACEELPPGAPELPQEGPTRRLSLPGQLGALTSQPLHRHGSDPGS

[13] = Clearance in monkey at 0.5 mg/kg, iv after 24 hrs; type: ADME, organism-based, Macaca mulatta; settings: rhesus monkey, in vivo
[14] = system: P-gp; assay: Substrate activity at P-gp (unknown origin) assessed as efflux ratio; type: ADME; settings: human, not told
[15] = Half life in rat at 0.35 mg/kg, iv; type: ADME, organism-based; settings: in vivo
[16] = target: T2, Cytochrome P450 2A6 (Homo sapiens, UniProt P11509); assay: Inhibition of CYP2A6 in human liver microsomes using coumarin as substrate after 10 mins by LC-MS/MS analysis; type: ADME
T2 sequence (P11509 whole entry): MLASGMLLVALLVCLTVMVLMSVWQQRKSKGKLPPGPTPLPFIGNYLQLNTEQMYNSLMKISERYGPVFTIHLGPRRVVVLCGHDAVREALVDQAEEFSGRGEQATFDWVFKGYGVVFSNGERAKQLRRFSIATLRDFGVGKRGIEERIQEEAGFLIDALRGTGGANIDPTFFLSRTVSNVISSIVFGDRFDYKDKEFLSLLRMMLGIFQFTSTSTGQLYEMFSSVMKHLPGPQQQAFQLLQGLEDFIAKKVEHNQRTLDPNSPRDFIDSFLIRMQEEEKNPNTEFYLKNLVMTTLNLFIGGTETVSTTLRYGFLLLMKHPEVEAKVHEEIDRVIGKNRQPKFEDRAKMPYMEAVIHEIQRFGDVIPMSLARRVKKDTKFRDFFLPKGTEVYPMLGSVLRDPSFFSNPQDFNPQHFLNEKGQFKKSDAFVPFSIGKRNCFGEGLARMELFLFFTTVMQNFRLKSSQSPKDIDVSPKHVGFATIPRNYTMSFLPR

[17] = Cmax in rat at 10 mg/kg, po; type: ADME, organism-based; design: dose 10 mg/kg, route oral; settings: in vivo
[18] = system: Rattus norvegicus; assay: Ex vivo receptor occupancy at mGluR5 in Sprague-Dawley rat brain po administered daily for 4 days in presence of [3H]-MPEPy by liquid scintillation counting method; type: functional, organism-based
[19] = Metabolic stability in human hepatic microsomes assessed as parent compound remaining at 1 uM after 30 mins in presence of NADPH by LC-MS/MS analysis relative to control; type: ADME, Microsome; settings: liver microsomes, read-out: Stability
[20] = AUC in monkey at 0.5 mg/kg, iv; type: ADME, organism-based, Macaca mulatta; settings: rhesus monkey, in vivo
[21] = target: Cytochrome P450 2C19 (Homo sapiens, UniProt P33261); assay: Inhibition of CYP2C19 in human liver microsomes using (S)-mephenytoin as substrate after 10 mins by LC-MS/MS analysis; type: ADME
Cytochrome P450 2C19, sequence (P33261 whole entry): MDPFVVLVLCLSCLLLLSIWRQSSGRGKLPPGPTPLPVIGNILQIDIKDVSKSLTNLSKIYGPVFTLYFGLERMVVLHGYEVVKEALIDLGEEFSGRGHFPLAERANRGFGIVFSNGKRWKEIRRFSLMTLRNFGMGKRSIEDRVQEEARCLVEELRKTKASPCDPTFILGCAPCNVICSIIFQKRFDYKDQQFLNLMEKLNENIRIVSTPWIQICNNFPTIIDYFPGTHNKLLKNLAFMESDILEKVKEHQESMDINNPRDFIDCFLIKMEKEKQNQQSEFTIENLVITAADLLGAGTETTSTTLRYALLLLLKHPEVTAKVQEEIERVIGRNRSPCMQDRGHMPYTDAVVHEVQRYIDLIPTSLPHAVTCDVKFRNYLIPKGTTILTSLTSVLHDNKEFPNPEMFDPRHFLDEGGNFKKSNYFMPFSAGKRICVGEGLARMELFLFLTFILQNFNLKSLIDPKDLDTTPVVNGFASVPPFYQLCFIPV

[22] = target: Cytochrome P450 2D6 (Homo sapiens, UniProt P10635); assay: Inhibition of CYP2D6 in human liver microsomes using bufuralol as substrate after 10 mins by LC-MS/MS analysis; type: ADME
Cytochrome P450 2D6, sequence (P10635 whole entry): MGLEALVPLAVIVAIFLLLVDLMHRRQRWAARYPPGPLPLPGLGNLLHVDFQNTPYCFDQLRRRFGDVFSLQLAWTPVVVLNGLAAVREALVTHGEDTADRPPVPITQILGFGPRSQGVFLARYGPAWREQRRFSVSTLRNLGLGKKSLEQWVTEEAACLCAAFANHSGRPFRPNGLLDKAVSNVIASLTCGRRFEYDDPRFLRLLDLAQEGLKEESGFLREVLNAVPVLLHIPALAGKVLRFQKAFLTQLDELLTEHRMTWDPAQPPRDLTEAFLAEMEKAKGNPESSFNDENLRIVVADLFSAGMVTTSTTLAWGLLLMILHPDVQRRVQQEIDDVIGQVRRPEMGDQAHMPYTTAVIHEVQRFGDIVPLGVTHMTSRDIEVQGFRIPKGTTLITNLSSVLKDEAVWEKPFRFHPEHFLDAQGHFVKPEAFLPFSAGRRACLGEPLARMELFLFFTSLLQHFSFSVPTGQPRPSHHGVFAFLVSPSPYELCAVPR

[23] = system: Rattus norvegicus; assay: Ex vivo receptor occupancy at mGluR5 in Sprague-Dawley rat brain at 0.3 mg/kg, po administered daily for 4 days in presence of [3H]-MPEPy by liquid scintillation counting method relative to control; type: functional
[24] = system: Rattus norvegicus; assay: Antidepressant activity in Wistar rat assessed as decrease in immobility time at 0.3 to 1 mg/kg, po administered 15 mins post training session from day 2 to day 6 measured for 5 mins by forced swimming test; type: functional, organism-based
[25] = target: Cytochrome P450 3A4 (Homo sapiens, UniProt P08684); assay: Inhibition of CYP3A4 in human liver microsomes using midazolam as substrate after 10 mins by LC-MS/MS analysis; type: ADME
Cytochrome P450 3A4, sequence (P08684 whole entry): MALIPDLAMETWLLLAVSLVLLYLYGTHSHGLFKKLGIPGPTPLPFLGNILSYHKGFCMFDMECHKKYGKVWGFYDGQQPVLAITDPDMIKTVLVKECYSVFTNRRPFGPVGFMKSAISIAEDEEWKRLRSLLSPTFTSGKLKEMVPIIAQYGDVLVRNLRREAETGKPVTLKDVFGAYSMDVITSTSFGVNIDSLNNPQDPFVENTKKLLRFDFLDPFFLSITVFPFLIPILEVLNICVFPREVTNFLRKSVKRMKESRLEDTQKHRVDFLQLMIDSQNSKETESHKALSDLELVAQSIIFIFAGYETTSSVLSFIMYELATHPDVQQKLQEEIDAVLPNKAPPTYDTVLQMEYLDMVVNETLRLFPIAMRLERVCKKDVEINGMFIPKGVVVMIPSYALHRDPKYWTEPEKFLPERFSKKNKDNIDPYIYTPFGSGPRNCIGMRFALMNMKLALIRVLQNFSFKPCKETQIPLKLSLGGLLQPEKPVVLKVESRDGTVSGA

[26] = Oral bioavailability in rat at 10 mg/kg; type: ADME, organism-based; settings: in vivo
[27] = Half life in monkey at 0.5 mg/kg, iv; type: ADME, organism-based, Macaca mulatta; settings: rhesus monkey, in vivo
[28] = AUC in monkey at 10 mg/kg, po; type: ADME, organism-based, Macaca mulatta; settings: rhesus monkey, in vivo
[29] = target: T3, Cytochrome P450 2C8 (Homo sapiens, UniProt P10632); assay: Inhibition of CYP2C8 in human liver microsomes using amodiaquine as substrate after 10 mins by LC-MS/MS analysis; type: ADME
T3 sequence (P10632 whole entry): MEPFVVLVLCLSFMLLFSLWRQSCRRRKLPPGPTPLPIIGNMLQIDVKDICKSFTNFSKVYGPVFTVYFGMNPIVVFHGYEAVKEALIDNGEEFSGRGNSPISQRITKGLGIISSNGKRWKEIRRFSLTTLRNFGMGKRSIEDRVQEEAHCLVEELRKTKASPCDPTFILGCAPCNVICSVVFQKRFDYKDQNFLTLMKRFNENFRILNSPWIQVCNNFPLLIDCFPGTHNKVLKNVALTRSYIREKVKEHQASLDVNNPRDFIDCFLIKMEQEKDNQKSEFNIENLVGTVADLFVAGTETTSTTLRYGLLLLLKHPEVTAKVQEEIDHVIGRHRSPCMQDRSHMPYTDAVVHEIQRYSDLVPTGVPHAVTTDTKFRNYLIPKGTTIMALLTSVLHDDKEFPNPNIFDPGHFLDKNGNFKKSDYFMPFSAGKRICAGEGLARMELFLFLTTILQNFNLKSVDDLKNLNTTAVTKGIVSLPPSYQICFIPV

[30] = AUC in rat at 0.35 mg/kg, iv; type: ADME, organism-based; settings: in vivo
[31] = AUC in rat at 10 mg/kg, po; type: ADME, organism-based; settings: in vivo
[32] = Volume of distribution at steady state in monkey at 0.5 mg/kg, iv after 24 hrs; type: ADME, organism-based, Macaca mulatta; settings: rhesus monkey, in vivo, read-out: Vdss
[33] = […] of CYP450 in human liver microsomes as substrate after 10 mins by LC-MS/MS analysis; type: ADME
[34] = system: Salmonella typhimurium; assay: Genotoxicity in Salmonella typhimurium by Ames test; type: toxicity; settings: salmonella enterica subsp. enterica serovar typhimurium
[35] = Volume of distribution at steady state in rat at 1 mg/kg, iv after 24 hrs; type: ADME, organism-based; settings: in vivo, read-out: Vdss
[36] = system: Rattus norvegicus; assay: Ex vivo receptor occupancy at mGluR5 in Sprague-Dawley rat brain at 1 mg/kg, po administered daily for 4 days in presence of [3H]-MPEPy by liquid scintillation counting method relative to control; type: functional
[37] = Half life in rat at 1 mg/kg, iv; type: ADME, organism-based; settings: in vivo
[38] = AUC in rat at 1 mg/kg, iv; type: ADME, organism-based; settings: in vivo
[39] = Clearance in rat at 1 mg/kg, iv after 24 hrs; type: ADME, organism-based; settings: in vivo

SMILES: O=C(c1ccccc1)N1CCc2oc(-c3ccc(F)cn3)nc2C1
- Activity [1]: Non-Toxic
- IC50 [2]: > 50 µM
- bioavailability [3]: 139%
- Vd [4]: 0.73 L/kg
- remaining at 0.5 h, 1 µM [5]: 91 to 97%
- solubility [6]: 16 µg/mL (≈ 49.5 µM)
- Cmax [7]: 3900 ng/mL
- clearance [8]: 4.6 mL/min/kg
- Papp [9]: 34.5 ×10⁻⁶ cm/s
- IC50 [10]: 0.054 µM
- IC50 [11]: > 50 µM
- IC50 [12]: 64 µM
- clearance [13]: 4.2 mL/min/kg
- efflux ratio [14]: 1.1
- half-life [15]: 2.1 h
- IC50 [16]: > 50 µM
- Cmax [17]: 2750 ng/mL
- Activity [18]: Dose-dependent effect
- remaining at 0.5 h, 1 µM [19]: 91 to 97%
- AUC [20]: 2060 ng·h/mL
- IC50 [21]: > 50 µM
- IC50 [22]: > 50 µM
- Occ [23]: 50%
- Activity [24]: Active
- IC50 [25]: > 50 µM
- bioavailability [26]: 102%
- half-life [27]: 4.8 h
- AUC [28]: 57100 ng·h/mL
- IC50 [29]: > 50 µM
- AUC [30]: 1290 ng·h/mL
- AUC [31]: 37400 ng·h/mL
- Vd [32]: 1.6 L/kg
- Activity [33]: Not Active
- Activity [34]: Non-Toxic

SMILES: COc1cccc(C(=O)N2CCc3oc(-c4ccc(F)cn4)nc3C2)c1
- remaining at 0.5 h, 1 µM [5]: > 91%
- IC50 [10]: 0.157 µM
- remaining at 0.5 h, 1 µM [19]: > 91%

SMILES: O=C(c1ccccc1)N1CCc2oc(-c3ccc(Cl)cn3)nc2C1
- IC50 [10]: 0.032 µM

SMILES: O=C(c1ccccc1F)N1CCc2oc(-c3ccc(F)cn3)nc2C1
- remaining at 0.5 h, 1 µM [5]: > 91%
- IC50 [10]: 0.058 µM
- remaining at 0.5 h, 1 µM [19]: > 91%

SMILES: O=C(c1cccc(Cl)c1)N1CCc2oc(-c3ccc(F)cn3)nc2C1
- remaining at 0.5 h, 1 µM [5]: > 91%
- IC50 [10]: 0.05 µM
- remaining at 0.5 h, 1 µM [19]: > 91%

SMILES: O=C(c1cc(F)cc(Cl)c1)N1CCc2oc(-c3ccc(F)cn3)nc2C1
- IC50 [2]: > 50 µM
- bioavailability [3]: 61%
- remaining at 0.5 h, 1 µM [5]: 91 to 97%
- solubility [6]: 6 µg/mL (≈ 16 µM)
- Vd [35]: 2.4 L/kg
- Occ [36]: 48%
- Cmax [7]: 2880 ng/mL
- Papp [9]: 37.1 ×10⁻⁶ cm/s
- IC50 [10]: 0.038 µM
- IC50 [11]: > 50 µM
- IC50 [12]: 19 µM
- clearance [13]: 1.7 mL/min/kg
- efflux ratio [14]: 0.9
- IC50 [16]: > 50 µM
- half-life [37]: 8.9 h
- AUC [38]: 4340 ng·h/mL
- Cmax [17]: 1730 ng/mL
- Activity [18]: Dose-dependent effect
- remaining at 0.5 h, 1 µM [19]: 91 to 97%
- AUC [20]: 5090 ng·h/mL
- IC50 [21]: > 50 µM
- IC50 [22]: > 50 µM
- IC50 [25]: > 50 µM
- bioavailability [26]: 80%
- half-life [27]: 16.1 h
- AUC [28]: 62400 ng·h/mL
- IC50 [29]: > 50 µM
- AUC [31]: 34500 ng·h/mL
- Vd [32]: 2.1 L/kg
- Activity [33]: Not Active
- clearance [39]: 3.8 mL/min/kg
- Activity [34]: Non-Toxic

SMILES: N#Cc1ccc(-c2nc3c(o2)CCN(C(=O)c2ccccc2)C3)nc1
- IC50 [10]: 0.237 µM
